Source: patent US20090099140A1, “20-Alkyl, Gemini Vitamin D3 Compounds and Methods of Use Thereof” (BioXell S.p.A., priority 2005, published 2009)

Legend:
IFN-γ production = IFN-γ production by allogeneic T cell activation in the mixed leukocyte response (MLR); format: cell-based; conditions: MLR of allogeneic PBMC from 2 different donors, 5 days, IFN-γ by ELISA, 50% inhibition of IFN-γ production
Procedure: Immature dendritic cells (DC) were prepared as described in Romani, N. et al., J. Immunol. Meth. 196:137. IFN-γ production by allogeneic T cell activation in the mixed leukocyte response (MLR) was determined as described in Penna, G., et al., J. Immunol., 164: 2405-2411 (2000).
Briefly, peripheral blood mononuclear cells (PBMC) were separated from buffy coats by Ficoll gradient and the same number (3×105) of allogeneic PBMC from 2 different donors were co-cultured in 96-well flat-bottom plates. After 5 days, IFN-γ production in the MLR assay was measured by ELISA and the results expressed as amount (nM) of test compound required to induce 50% inhibition of IFN-γ production (IC50) (Table 1).

female C57BL/6 mice = experiment: Determination of maximum tolerated dose (MTD), highest oral dose without hypercalcemia (serum calcium); format: in vivo; conditions: eight week-old female C57BL/6 mice, p.o. daily for four days in miglyol; highest dose without hypercalcemia (serum calcium >10.7 mg/dl) on day five
Procedure: (§1) The maximum tolerated dose of the vitamin D3 compounds of the invention were determined in eight week-old female C57BL/6 mice (3 mice/group) dosed orally (0.1 ml/mouse) with various concentrations of Vitamin D3 analogs daily for four days. Analogs were formulated in miglyol for a final concentration of 10, 30, 100 and 300 μg/kg when given at 0.1 ml/mouse p.o. daily. Blood for serum calcium assay was drawn by tail bleed on day five, the final day of the study. Serum calcium levels were determined using a colorimetric assay (Sigma Diagnostics, procedure no. 597). The highest dose of analog tolerated without inducing hypercalcemia (serum calcium >10.7 mg/dl) was taken as the maximum tolerated does (MTD).

[1] = as above; format: in vivo; conditions: mouse, in vivo, po; eight week-old female C57BL/6 mice, p.o. daily for four days in miglyol; highest dose without hypercalcemia (serum calcium >10.7 mg/dl) on day five; read-out: MTD (mice)
Procedure: as §1

Molecule	IC50 (IFN-γ production)	MTD (mice) (female C57BL/6 mice)	IC50 (IFN-γ production; 120 h)	MTD at 4 days [1]
1α-Fluoro-25-hydroxy-20S-20-(4-hydroxy-5,5,5-trideutero-4-trideuteromethyl-pentyl)-23E-ene-26,27-hexafluorocholecalciferol [Compound 21]	7.1 pM	0.01 mg/kg	–	–
C=C1/C(=C\C=C2/CCC[C@@]3(C)C2CC[C@@H]3[C@](C)(CC#CC(O)(C(F)(F)F)C(F)(F)F)CCCC(C)(C)O)CC(O)C[C@@H]1F (stereo partly drawn) [Compound 13, (20S)-1α-Fluoro-25-hydroxy-20-(5,5,5-trifluoro-4-hydroxy-4-trifluoromethyl-pent-2-ynyl)-cholecalciferol]	–	–	358 pM	0.1 mg/kg
C=C1/C(=C\C=C2/CCC[C@@]3(C)C2CC[C@@H]3[C@](C)(C/C=C\C(O)(C(F)(F)F)C(F)(F)F)CCCC(C)(C)O)CC(O)C[C@@H]1F (stereo partly drawn) [Compound 14, (20S)-1α-Fluoro-25-hydroxy-20-[(2Z)-5,5,5-trifluoro-4-hydroxy-4-trifluoromethyl-pent-2-enyl]-cholecalciferol]	–	–	1010 pM	0.1 mg/kg
C=C1/C(=C\C=C2/CCC[C@@]3(C)C2CC[C@@H]3[C@](C)(C/C=C/C(O)(C(F)(F)F)C(F)(F)F)CCCC(C)(C)O)CC(O)C[C@@H]1F (stereo partly drawn) [Compound 15, (20S)-1α-Fluoro-25-hydroxy-20-[(2E)-5,5,5-trifluoro-4-hydroxy-4-trifluoromethyl-pent-2-enyl]-cholecalciferol]	–	–	119 pM	0.01 mg/kg
[2H]C([2H])([2H])C(O)(CCC[C@@](C)(C/C=C\C(O)(C(F)(F)F)C(F)(F)F)[C@H]1CCC2/C(=C/C=C3/C[C@@H](O)C[C@H](O)C3=C)CCC[C@@]21C)C([2H])([2H])[2H] (stereo partly drawn) [Compound 16, 1,25-Dihydroxy-20S-20-(4-hydroxy-5,5,5-trideutero-4-trideuteromethyl-pentyl)-23Z-ene-26,27-hexafluorocholecalciferol]	–	–	11.1 pM	0.0003 mg/kg
[2H]C([2H])([2H])C(O)(CCCC(C)(C/C=C\C(O)(C(F)(F)F)C(F)(F)F)[C@H]1CCC2/C(=C/C=C3C[C@@H](O)C[C@H](O)C3)CCC[C@@]21C)C([2H])([2H])[2H] (stereo partly drawn) [Compound 17, 1,25-Dihydroxy-20S-20-(4-hydroxy-5,5,5-trideutero-4-trideuteromethyl-pentyl)-23Z-ene-26,27-hexafluoro-19-nor-cholecalciferol]	–	–	2.5 pM	0.0003 mg/kg
[2H]C([2H])([2H])C(O)(CCCC(C)(C/C=C\C(O)(C(F)(F)F)C(F)(F)F)[C@H]1CCC2/C(=C/C=C3/C[C@@H](O)C[C@H](F)C3=C)CCC[C@@]21C)C([2H])([2H])[2H] (stereo partly drawn) [Compound 18, 1α-Fluoro-25-hydroxy-20S-20-(4-hydroxy-5,5,5-trideutero-4-trideuteromethyl-pentyl)-23Z-ene-26,27-hexafluorocholecalciferol]	–	–	219 pM	0.1 mg/kg
[2H]C([2H])([2H])C(O)(CCC[C@@](C)(CC#CC(O)(C(F)(F)F)C(F)(F)F)[C@H]1CCC2/C(=C/C=C3/C[C@@H](O)C[C@H](F)C3=C)CCC[C@@]21C)C([2H])([2H])[2H] (stereo partly drawn) [Compound 24, 1α-Fluoro-25-hydroxy-20S-20-(4-hydroxy-5,5,5-trideutero-4-trideuteromethyl-pentyl)-23-yne-26,27-hexafluorocholecalciferol]	–	–	21.3 pM	0.01 mg/kg
[2H]C([2H])([2H])C(O)(CCC[C@](C)(C/C=C\C(O)(C(F)(F)F)C(F)(F)F)[C@H]1CCC2/C(=C/C=C3/C[C@@H](O)C[C@H](O)C3=C)CCC[C@@]21C)C([2H])([2H])[2H] (stereo partly drawn) [Compound 25, 1,25-Dihydroxy-20R-20-(4-hydroxy-5,5,5-trideutero-4-trideuteromethyl-pentyl)-23Z-ene-26,27-hexafluorocholecalciferol]	–	–	1 pM	0.003 mg/kg
